A short description of data set [1]: In vitro DMPK: human predicted hepatic clearance. It counts as in vitro ADME. The method, then: (§1) Compound 1 was tested in several in vitro assays to investigate both metabolism and pharmacokinetics. These assays were performed according to known methods as generally described in the following references: Conde-Ceide et al. ACS Med. Chem. Lett. 2015, 6, 716-720; Morris et al. J. Med. Chem. 2014, 57, 10192-10197; and Bubser et al. ACS Chem. Neurosci. 2014, 5, 920-942.

A short description of data set [2]: In vivo DMPK in rat (plasma clearance, brain:plasma distribution). The note with it: read-out: Rat CLp.
The target of the next data set is T1, Human M4 (Homo sapiens, UniProt P08173).
T1 sequence (P08173 1-479): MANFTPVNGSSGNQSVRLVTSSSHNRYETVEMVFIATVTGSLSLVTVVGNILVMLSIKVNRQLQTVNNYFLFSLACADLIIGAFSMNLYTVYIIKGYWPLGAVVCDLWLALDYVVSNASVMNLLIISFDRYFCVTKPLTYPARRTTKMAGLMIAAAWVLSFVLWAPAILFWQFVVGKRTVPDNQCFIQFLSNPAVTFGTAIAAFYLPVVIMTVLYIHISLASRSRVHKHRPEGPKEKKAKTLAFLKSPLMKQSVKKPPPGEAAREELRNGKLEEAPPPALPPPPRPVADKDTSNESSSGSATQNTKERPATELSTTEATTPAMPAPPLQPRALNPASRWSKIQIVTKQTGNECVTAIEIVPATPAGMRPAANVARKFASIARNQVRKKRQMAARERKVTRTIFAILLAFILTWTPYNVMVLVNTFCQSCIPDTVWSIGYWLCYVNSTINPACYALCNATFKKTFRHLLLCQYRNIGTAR
As to the kind of experiment: mAChR M4 cell-based functional assay (calcium flux, potentiation of ACh EC20 response). On the set-up: Emax: dose or concentration left out as unconfirmed. For orientation: A change in cytosolic calcium serves as a functional read-out for many receptors and channels.

Data set [3] in a line: In vitro DMPK: human fraction unbound in plasma. It counts as in vitro ADME. The note with it: read-out: Human Fu (plasma). As for the experimental part:
as §1

A short description of data set [4]: In vitro DMPK: rat predicted hepatic clearance. It counts as in vitro ADME. As for the experimental part: as §1
Data set [5] can be described thus: In vitro DMPK: rat fraction unbound in plasma. It counts as in vitro ADME. The note with it: read-out: Rat Fu (plasma). The method, then:
as §1

The nature of data set [6]: In vitro DMPK: rat fraction unbound in brain. The note with it: read-out: Rat Fu (brain). Type of data set: in vitro ADME. The method, then:
as §1

For data set [7] the following is noted: human, in vivo; cited from earlier work.
The conditions of data set [8]: without causing catalepsy; cited from earlier work.
For data set [9] the following is noted: Alzheimer's disease patients; delusions, suspiciousness, vocal outbursts, hallucinations; cited from earlier work.

SMILES strings stand for the structures. Where only a bound is given, the exact number is not on record here.

Broadly, the Emax is the maximal effect, on the per cent scale that the assay sets. `Cc1c(C(F)F)nnc2sc3c(NCc4ccc(C(C)(C)O)cc4)ncnc3c12` [Compound 1, 2-(4-(((3-(Difluoromethyl)-4-methylpyrimido[4′,5′:4,5]thieno[2,3-c]pyridazin-8-yl)amino)methyl)phenyl)propan-2-ol]: the “Human Predicted CLhep (mL/min/kg) Method A” value was 6.69 mL/min/kg in data set [1] (Method A (first line)) and 0.34 mL/min/kg in data set [1] (second line also printed as Method A). For the same compound, the clearance in data set [2] was 2.67 mL/min/kg. In addition, the Emax at Human M4 was found to be 98.7%. Besides, the fraction unbound in data set [3] turned out to be 0.01; in data set [5] it was 0.012; in [6], 0.006. In addition, in data set [4], the “Rat Predicted CLhep (mL/min/kg) Method A” value is listed as 19.1 mL/min/kg.
Usually EC50 stands for the concentration needed to bring the measured effect to its halfway point. Take `COc1ccc(CNc2ncnc3c2sc2nnc(C(F)F)c(C)c23)cc1F` [Compound 2, 3-(difluoromethyl)-N-(3-fluoro-4-methoxybenzyl)-4-methylpyrimido[4′,5′:4,5]thieno[2,3-c]pyridazin-8-amine]: at Human M4, the EC50 is 581 nM and the Emax was determined as 79.8%.
For the compound `Cc1c(C(F)F)nnc2sc3c(N4CCCC4)ncnc3c12` [Compound 3, 3-(difluoromethyl)-4-methyl-8-(pyrrolidin-1-yl)pyrimido[4′,5′:4,5]thieno[2,3-c]pyridazine], on Human M4, the EC50 is 238 nM and the Emax is 83.5%.
With `Cc1c(C(F)F)nnc2sc3c(N4CC5(COC5)C4)ncnc3c12` [Compound 4, 6-(3-(difluoromethyl)-4-methylpyrimido[4′,5′:4,5]thieno[2,3-c]pyridazin-8-yl)-2-oxa-6-azaspiro[3.3]heptane], at Human M4, the EC50 is 84.1 nM and the Emax amounted to 82.7%.
For `Cc1c(C(F)F)nnc2sc3c(N4CC(CO)(CO)C4)ncnc3c12` [Compound 5, (1-(3-(difluoromethyl)-4-methylpyrimido[4′,5′:4,5]thieno[2,3-c]pyridazin-8-yl)azetidine-3,3-diyl)dimethanol], at Human M4, the half-maximal effective concentration (EC50) was found to be 1060 nM and the Emax was 81.9%.
The corresponding values for `Cc1c(C(F)F)nnc2sc3c(N4CCOCC4)ncnc3c12` [Compound 6, 4-(3-(difluoromethyl)-4-methylpyrimido[4′,5′:4,5]thieno[2,3-c]pyridazin-8-yl)morpholine] are 572 nM and 72.2%.
For the compound `Cc1c(C(F)F)nnc2sc3c(NC4CCCC4)ncnc3c12` [Compound 7, N-cyclopentyl-3-(difluoromethyl)-4-methylpyrimido[4′,5′:4,5]thieno[2,3-c]pyridazin-8-amine], at Human M4, the EC50 was determined as 271 nM and the maximal response (Emax) stood at 95.4%.
The corresponding values for `[2H]C([2H])(Nc1ncnc2c1sc1nnc(C(F)F)c(C)c12)c1ccc(C(C)(C)O)cc1` [Compound 8, 2-(4-(((3-(difluoromethyl)-4-methylpyrimido[4′,5′:4,5]thieno[2,3-c]pyridazin-8-yl)amino)methyl-d2)phenyl)propan-2-ol] are 528 nM and 95.8%.
In the same order, the values of `Cc1c(C(F)F)nnc2sc3c(NCc4ccc(C5(O)CCC5)cc4)ncnc3c12` [Compound 9, 1-(4-(((3-(difluoromethyl)-4-methylpyrimido[4′,5′:4,5]thieno[2,3-c]pyridazin-8-yl)amino)methyl)phenyl)cyclobutan-1-ol] are 809 nM and 95.5%.
In the same order, the values of `Cc1c(C(F)F)nnc2sc3c(NCc4ccc(C(C)(O)C5CC5)cc4)ncnc3c12` (stereo not shown) [Compound 10, 1-cyclopropyl-1-(4-(((3-(difluoromethyl)-4-methylpyrimido[4′,5′:4,5]thieno[2,3-c]pyridazin-8-yl)amino)methyl)phenyl)ethan-1-ol] are 860 nM and 95.5%.
As for `Cc1ccccc1OC1CCN(c2ncnc3c2sc2nnc(C(F)F)c(C)c23)C1` (stereo not shown) [Compound 11, 3-(difluoromethyl)-4-methyl-8-(3-(o-tolyloxy)pyrrolidin-1-yl)pyrimido[4′,5′:4,5]thieno[2,3-c]pyridazine], at Human M4, the EC50 is above 10000 nM and the Emax amounted to 68.7%.
`Nc1c2c(nc3ccccc13)CCCC2` [tacrine]: in data set [7], the “patients with elevated liver transaminases (hepatotoxicity)” value is recorded as “about 30%”.
On to `CCCCCCOc1nsnc1C1=CCCN(C)C1` [xanomeline], for which, in data set [8], the “activity in animal models with profiles similar to known antipsychotic drugs” value is reported as “active in animal models”. The “effect on psychotic behavioral symptoms” value in [9] is given as “reduce psychotic behavioral symptoms”.

These data come from US11376254B2, “Positive allosteric modulators of the muscarinic acetylcholine receptor M4” (Vanderbilt University, priority 2017, dated 2022).
